Laboratory results from patent publication US10786690B2, “Amide derivatives of polycaffeoylquinic acids, process for producing same and uses thereof” (TEMISIS, priority 2016, dated 2020).

Tested on: female SKH-1 hairless mice
Assay: TPA-induced skin inflammation in female SKH-1 hairless mice, macroscopic visual scoring
Format: in vivo
Procedure: The study is performed on 18 female SKH-1 hairless mice, weighing roughly 20-25 g and divided into 3 groups (n=6/housed in pairs) under controlled temperature (24±2° C.) and humidity (50±20%) conditions and with a 12-hour reversed light cycle (light from 21:00 to 09:00) (food and water ad libitum).
The compounds to be tested are as follows: • Excipial® ointment (control) • PAT1657 (octyl-isochlorogenamide A) incorporated at 1.33% or 2.67% by mass in Excipial® ointment
The treatment groups are distributed as follows: • G1: induced skin inflammation+daily treatment with vehicle (Excipial® ointment) (Control), • G2: induced skin inflammation+treatment with PAT1657 incorporated at 1.33% by mass in Excipial® ointment (PAT1657/1.33%), • G3: induced skin inflammation+treatment with PAT1657 incorporated at 2.67% by mass in Excipial® ointment (PAT1657/2.67%). Induction and Maintenance of Skin Inflammation
Skin inflammation is induced for each mouse by daily dorsal cutaneous application to Zone A (FIG. 9) for 7 days (day 1 to day 7) of 100 μL of TPA acetone solution at a concentration of 0.2 mg/ml.
It is then maintained by cutaneous application every 2 days for 7 days (day 8 to day 14) of 100 μl of TPA acetone solution.
For the vehicle, the animals (G1) were treated daily by cutaneous application of 0.125 g of ointment on the backs of the mice just off the zone of application of TPA acetone solution (roughly 5 cm^2 area corresponding to zones A and B shown in FIG. 9), for 7 days from day 8 to day 14.
For compound PAT1657, the animals (G2 and G3) were treated by cutaneous application of 0.125 g of ointment on the backs of the mice just off the zone of application of TPA acetone solution (roughly 5 cm^2 area corresponding to zones A and B shown in FIG. 9), on days 8, 11 and 14.
Macroscopic visual scoring of skin inflammation is performed daily for each mouse from day 8 to day 15 by quantifying it according to the following scale (Guenon-Macé et al., 2015):
Macroscopic visual scoring of skin inflammation makes it possible to quantify the following parameters: • degree of skin inflammation in the TPA acetone solution application zone and in the ointment treatment zone corresponding to zone A in FIG. 9, • degree of skin inflammation in the ointment treatment zone and outside the TPA acetone solution application zone corresponding to zone B in FIG. 9, • degree of skin inflammation on the rest of the back corresponding to zone C in FIG. 9, • Overall macroscopic score of skin inflammation (total of the scores of the three zones A, B and C shown in FIG. 9). Result Animal Mortality

[1] = PAT1657 at 1.33% and 2.67% in Excipial ointment, relative to control, from day 10 onwards

CCCCCCCCNC(=O)[C@]1(O)C[C@@H](OC(=O)/C=C/c2ccc(O)c(O)c2)[C@@H](O)[C@H](OC(=O)/C=C/c2ccc(O)c(O)c2)C1 [PAT1657, (2E,2′E)-((1R,2S,3R,5S)-2,5-dihydroxy-5-(octylcarbamoyl)cyclohexane-1,3-diyl) bis(3-(3,4-dihydroxyphenyl)acrylate)] was tested, and the “degree of skin inflammation, zone A (TPA application zone and treatment zone)” value (PAT1657 at 1.33% and 2.67% in Excipial ointment, cutaneous, days 8, 11, 14, relative to control, from day 13 onwards) was “significant decrease”, the “degree of skin inflammation, zone C (rest of the back)” value [1] was “significant decrease” and the “overall degree of skin inflammation (zones A, B and C)” value [1] was “significant decrease”. The “degree of skin inflammation, zone B (treatment zone outside TPA application zone)” value (PAT1657 at 1.33% and 2.67% in Excipial ointment, relative to control, from day 13 onwards) was “significant decrease”, the “reaction to application of the products” value (SKH-1 mice, cutaneous application of ointments) was “No reaction was observed” and the “intensity of skin inflammation from a macroscopic point of view” value (two doses, cutaneous application every 3 days, curative treatment, dose-dependent effect) was “significantly reduced”.
